Patent US9676820B2, “Method for inhibiting proliferation of high LIX1L-expressing tumor cell, and tumor cell proliferation-inhibiting peptide” (National University Corporation Hamamatsu University School …, priority 2013, dated 2017)

Legend:
K562 strain = experiment: MTT assay, K562 strain; format: cell-based; conditions: 72 hours; for absorbance at 570 nm (MTT assay), influence on cell proliferation: peptide 0 μM to 100 μM
Protocol: (§1) Specifically, first, cells plated in a 96-well microplate such that the density thereof became 5×10^3 cells/well were cultured for one night in a culture solution having the same composition as those in the reference examples. Thereafter, the culture solution was exchanged with 100 μL of a culture solution of which the concentration of peptides is 0 μM to 100 μM for culturing for 72 hours. After the culturing, an MTT-containing PBS solution was added to the culture solution, and the mixture was incubated for 4 hours. Then, formazan which was generated by putting 100 μL of isopropanol (containing 34 (v/v) % of hydrochloric acid) into each of the wells was dissolved. The absorbance of each of the wells of the microplate at 570 nm was measured using a microplate reader. As controls, culturing was performed in the same manner except that no peptide was added to the strains, an MTT assay was performed thereon, and the absorbance at 570 nm was measured (untreated).
(§2) Specifically, the cells were cultured for 72 hours similarly to Example 2 except that a peptide to be added to a cell strain was set to peptide 1, 3, or 4, or a control peptide, an MTT assay was performed thereon, and the absorbance at 570 nm was measured.
(§3) In the method for measuring the viable cell counts, cells were cultured for 3 days similarly to Example 1 except that a 25 μM (10 μM for an HL-60 strain, a K562 strain, and a U937 strain) culture solution containing a control peptide or a peptide 1 was used, and the viable cell counts were measured. As a comparison, culturing was performed similarly to the above using a culture solution containing no peptide, and the viable cell counts were measured (untreated).
(§4) In addition, in the method for performing an MTT assay, cells were cultured for 72 hours similarly to Example 2 except that a peptide to be added to a strain was set to a control peptide or a peptide 1 at 25 μM (10 μM for an HL-60 strain, a K562 strain, and a U937 strain), an MTT assay was performed thereon, and the absorbance at 570 nm was measured. As a comparison, culturing was performed similarly to the above using a culture solution containing no peptide, and the MTT assay was performed thereon (untreated).
(§5) Specifically, the cells were cultured for 72 hours similarly to Example 2 except that a peptide to be added to a cell was set to a peptide 1, 2, 5, or 6, MTT assays were performed thereon, and the absorbance at 570 nm was measured. As a comparison, culturing was performed similarly to the above using a culture solution containing no peptide, and the MTT assay was performed thereon (untreated).
as §5, with “that peptides” for “that a peptide”, “to” for “to a”, “cell strains were” for “cell was”, “to peptides 7 to 14,” for “to a peptide 1, 2, 5, or 6,”
Specifically, the cells were cultured for 72 hours similarly to Example 2 except that a peptide to be added to a cell strain was set to a peptide 15 or 16, an MTT assay was performed thereon, and the absorbance at 570 nm was measured. As a comparison, culturing was performed similarly to the above using a culture solution containing no peptide, and the MTT assay was performed thereon (untreated).

U937 strain = experiment: MTT assay, U937 strain; format: cell-based; conditions: peptide 0 μM to 100 μM, 72 hours
Protocol: as §1, §2, §3, §4

RPMI8226 strain = experiment: MTT assay, RPMI8226 strain; format: cell-based; conditions: peptide 0 μM to 100 μM, 72 hours
Protocol: as §1, §2

293 FLG/LIX1L = experiment: MTT assay, 293 FLG/LIX1L cells; format: cell-based; conditions: 72 hours, peptide concentrations up to 250 μM
Protocol: as §1, with “Thereafter, the culture solution was exchanged with 100 μL of a culture solution of which the concentration of peptides is 0 μM to 100 μM for culturing for 72 hours.” left out
as §3, §4, §5
(§6) Specifically, the cells were cultured for 72 hours similarly to Example 2 except that peptides to be added to cell strains were set to peptides 7 to 14, MTT assays were performed thereon, and the absorbance at 570 nm was measured. […]
(§7) Specifically, the cells were cultured for 72 hours similarly to Example 2 except that a peptide to be added to a cell strain was set to a peptide 15 or 16, an MTT assay was performed thereon, and the absorbance at 570 nm was measured. […]

MKN45 strain = experiment: MTT assay, MKN45 strain; format: cell-based; conditions: 72 hours, peptide concentrations up to 250 μM
Protocol: as §1, with “Thereafter, the culture solution was exchanged with 100 μL of a culture solution of which the concentration of peptides is 0 μM to 100 μM for culturing for 72 hours.” left out
as §3, §4, §5, §6, §7

NUGC-4 strain = experiment: MTT assay, NUGC-4 strain; format: cell-based; conditions: 72 hours, peptide concentrations up to 250 μM
Protocol: as §1, with “Thereafter, the culture solution was exchanged with 100 μL of a culture solution of which the concentration of peptides is 0 μM to 100 μM for culturing for 72 hours.” left out
as §3, §4, §5, §6, §7

293 FLG = experiment: MTT assay, 293 FLG cells; format: cell-based; conditions: 72 hours, peptide concentrations up to 250 μM
Protocol: as §1, with “Thereafter, the culture solution was exchanged with 100 μL of a culture solution of which the concentration of peptides is 0 μM to 100 μM for culturing for 72 hours.” left out
as §3, §4, §5, §6, §7

MKN45 cell strains = experiment: Cancer mouse model transplanted with MKN45 cell strain; format: in vivo; conditions: nude mice with MKN45 transplant; 100 μL of 30 μM peptide solution 4 times; vs spare mice given nothing
Protocol: Rearing of 10 nude male mice (BALB/cAJcl-nu/nu, purchased from CLEA Japan, Inc.) at the age of 7 weeks was started, and MKN45 cell strains separately cultured were transplanted into the mice by being subcutaneously injected thereinto on day 31. The day on which the transplantation was performed was set as day 0, the mice were divided into two groups (peptide 1-administered group and control peptide-administered group) of 5 mice on day 14 of the transplantation, 4 mice were selected among the 5 mice from each group, and the peptide 1 or the control peptide was administered. The remaining one mouse was set as a spare. In the peptide 1-administered group, 100 μL of a 30 μM peptide 1 solution (solution prepared by adding a methylcellulose solution to the solution after the peptide 1 was dissolved in PBS (−)) was subcutaneously injected into a tumor site (site into which the MKN45 cell strain was injected) 4 times every 3 days. In the control peptide-administered group, 100 μL of a 30 μM control peptide solution (solution prepared by adding a methylcellulose solution to the solution after the control peptide was dissolved in PBS (−)) was subcutaneously injected into a tumor site 4 times on the same days as those in the peptide 1-administered group.
The results in which the points of time (days) at which a peptide solution was administered to each mouse and the volume (mm^3) of a tumor site were temporally measured are shown in FIG. 21. For the volume of the tumor site, the width and the length of the tumor site determined from the appearance of the mouse were measured and calculated using the following formula. [Volume(mm^3) of Tumor Site]=([Width(mm) of Tumor Site]^2×[Length(mm) of Tumor Site])/2
The “width of tumor site” referred herein means a maximum width of a portion in which the skin has risen due to the tumor and the “length of tumor site” means a maximum length of a portion in which the skin has risen due to the tumor.

Row | Compound | absorbance at 570 nm (MTT assay), influence on cell proliferation (K562 strain) | absorbance at 570 nm (MTT assay), cell proliferation (U937 strain) | absorbance at 570 nm (MTT assay), influence on cell proliferation (RPMI8226 strain) | other results
1 | peptide 3: peptide in which the Y136-containing partial sequence consists of 20 amino acids (YGRKKRRQRRRXEMVPSNSPPYVCYVTLPGGS; peptide 3) | inhibited | inhibited | not inhibited | 
2 | peptide 4: peptide in which the Y136-containing partial sequence consists of 30 amino acids (YGRKKRRQRRRXALVVYEMVPSNSPPYVCYVTLPGGSCFGSF; peptide 4) | inhibited | inhibited | not inhibited | 
3 | YGRKKRRQRRR-X-HTQGYGRVNV-NH2 (YGRKKRRQRRRXHTQGYGRVNV; ε-aminocaproic acid linker; C-terminal amide; peptide 6) |  |  |  | cell proliferation (MTT assay, absorbance at 570 nm) (K562 strain; peptide concentrations up to 250 μM): not inhibited; cell proliferation (MTT assay, absorbance at 570 nm) (293 FLG/LIX1L): not inhibited; cell proliferation (MTT assay, absorbance at 570 nm) (MKN45 strain): not inhibited; cell proliferation (MTT assay, absorbance at 570 nm) (NUGC-4 strain): not inhibited; cell proliferation (MTT assay, absorbance at 570 nm) (293 FLG): not inhibited
4 | N=C(N)NCCC[C@H](NC(=O)CNC(=O)[C@@H](N)Cc1ccc(O)cc1)C(=O)N[C@@H](CCCCN)C(=O)N[C@@H](CCCCN)C(=O)N[C@@H](CCCNC(=N)N)C(=O)N[C@@H](CCCNC(=N)N)C(=O)N[C@@H](CCC(N)=O)C(=O)N[C@@H](CCCNC(=N)N)C(=O)N[C@@H](CCCNC(=N)N)C(=O)N[C@@H](CCCNC(=N)N)C(=O)NCCCCCC(N)=O [control peptide, reference compound] |  |  |  | body weight (MKN45 cell strains): no particularly significant change
